Measured values taken from patent US20210196720A1 (UROVANT SCIENCES GMBH, priority 2018, published 2021).
Read-outs that look alike come from different tables or passages of the source.

Key:
[1] = Phase 2b OAB study, trough concentrations; assay type: in vivo, human; conditions: OAB patients
β3-AR = β3-AR (Homo sapiens, UniProt P13945); assay: Adenylyl cyclase functional assay in CHO cells stably expressing human β3-AR; assay type: cell-based; set-up: expressed in transfected cells
Procedure: The degree of activation relative to a proven full agonist (isoproterenol) was measured along with the compound EC50.

[2] = Renal impairment PK, single 100 mg; set-up: AUC0-inf GMR vs healthy / Cmax GMR vs healthy: unit not given beside the values;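 further: pharmacokinetic parameters in patients with renal impairment of differing severity, statistically compared against matched healthy subjects as controls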

Sequence of β3-AR (P13945 whole entry): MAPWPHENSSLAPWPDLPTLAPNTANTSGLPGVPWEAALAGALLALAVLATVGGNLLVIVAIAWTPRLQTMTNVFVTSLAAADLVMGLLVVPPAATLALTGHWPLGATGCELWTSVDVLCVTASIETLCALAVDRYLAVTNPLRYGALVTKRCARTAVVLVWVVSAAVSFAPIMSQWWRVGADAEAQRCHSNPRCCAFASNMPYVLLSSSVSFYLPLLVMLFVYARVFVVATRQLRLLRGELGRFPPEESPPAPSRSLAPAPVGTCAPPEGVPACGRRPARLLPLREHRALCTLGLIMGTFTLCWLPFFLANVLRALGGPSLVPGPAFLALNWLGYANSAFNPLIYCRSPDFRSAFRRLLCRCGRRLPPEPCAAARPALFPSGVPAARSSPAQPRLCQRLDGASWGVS

In the case of O=C(Nc1ccc(C[C@@H]2CC[C@H]([C@H](O)c3ccccc3)N2)cc1)[C@@H]1CCc2nccc(=O)n21 [Vibegron, (6S)-N-[4-[[(2S,5R)-5-[(R)-hydroxy(phenyl)methyl]pyrrolidin-2-yl]methyl]phenyl]-4-oxo-7,8-dihydro-6H-pyrrolo[1,2-a]pyrimidine-6-carboxamide], the “mean (±SD) Ctrough” value ([1]; 50 mg QD) is reported as 27.4 (±18.3) ng/mL, the “mean (±SD) Ctrough” value ([1]; 100 mg QD) is reported as 73.6 (±65.5) ng/mL and the EC50 (β3-AR) is reported as 1.1 nM. The EC50 (β3-AR; 40% human serum) was 1.7 nM, the AUC(0-inf) ([2]; healthy matched controls) was 1540 ng·h/mL and the “Apparent terminal t1/2” value ([2]; healthy matched controls) was 98.8 h. For the same compound, the CL/F ([2]; healthy matched controls) was 64.9 L/h, the CLR ([2]; healthy matched controls) was 10.4 L/h and the “Fe[urine]48 hr” value ([2]; healthy matched controls) was 7.9%. For the same compound, the “AUC0-inf GMR vs healthy” value ([2]; mild renal impairment) was 1.49, the “AUC0-inf higher than healthy controls” value ([2]; mild renal impairment) was 49% and the AUC(0-inf) ([2]; mild renal impairment) was 2290 ng·h/mL. For the same compound, the “Apparent terminal t1/2” value ([2]; mild renal impairment) was 96.2 h, the CL/F ([2]; mild renal impairment) was 43.6 L/h and the CLR ([2]; mild renal impairment) was 6.3 L/h. The “CLR reduction vs healthy controls” value ([2]; mild renal impairment) was 39%, the Cmax ([2]; mild renal impairment) was 210 ng/mL and the “Cmax GMR vs healthy” value ([2]; mild renal impairment) was 1.96. For the same compound, the “Cmax higher than healthy controls” value ([2]; mild renal impairment) was 96%, the “Fe[urine]48 hr” value ([2]; mild renal impairment) was 8.5% and the Tmax ([2]; mild renal impairment) was 1.0 h. For the same compound, the “AUC0-inf GMR vs healthy” value ([2]; moderate renal impairment) was 2.06, the “AUC0-inf higher than healthy controls” value ([2]; moderate renal impairment) was 106% and the AUC(0-inf) ([2]; moderate renal impairment) was 3170 ng·h/mL. For the same compound, the “Apparent terminal t1/2” value ([2]; moderate renal impairment) was 108 h, the CL/F ([2]; moderate renal impairment) was 31.5 L/h and the CLR ([2]; moderate renal impairment) was 3.6 L/h. For the same compound, the “CLR reduction vs healthy controls” value ([2]; moderate renal impairment) was 65%, the Cmax ([2]; moderate renal impairment) was 180 ng/mL and the “Cmax GMR vs healthy” value ([2]; moderate renal impairment) was 1.68. The “Cmax higher than healthy controls” value ([2]; moderate renal impairment) was 68%, the “Fe[urine]48 hr” value ([2]; moderate renal impairment) was 5.5% and the Tmax ([2]; moderate renal impairment) was 1.3 h. For the same compound, the “mean increase in AUC vs normal renal function” value ([2]; moderate renal impairment) was 1.6 fold, the “AUC0-inf GMR vs healthy” value ([2]; severe renal impairment) was 1.83 and the “AUC0-inf higher than healthy controls” value ([2]; severe renal impairment) was 83%. For the same compound, the AUC(0-inf) ([2]; severe renal impairment) was 2820 ng·h/mL, the CL/F ([2]; severe renal impairment) was 35.5 L/h and the CLR ([2]; severe renal impairment) was 1.9 L/h. For the same compound, the “CLR reduction vs healthy controls” value ([2]; severe renal impairment) was 82%, the “Cmax GMR vs healthy” value ([2]; severe renal impairment) was 1.42 and the “Cmax higher than healthy controls” value ([2]; severe renal impairment) was 42%. The “Fe[urine]48 hr” value ([2]; severe renal impairment) was 2.1% and the Tmax ([2]; severe renal impairment) was 0.5 h.
